Experimental data published in ChEMBL document CHEMBL1125860 (J Med Chem, 1991).
Values belong to the compound of their own block, whether it stands above or below them. Activity calls are given as the source filed them. The calls are words filed in the database; no cut-off is given here.

Legend:
Rattus norvegicus [1] = test: In vivo inhibition of galactitol accumulation in sciatic nerves of rat at 27 mg/kg/day; format: functional; conditions: Sciatic nerve
[2] = target: Aldo-keto reductase family 1 member B1 (Bos taurus) (UniProt P16116); test: In vitro % decrease of aldose reductase was measured in isolated partially purified bovine lens preparations at 10e-7 M concentration; Not active
Rattus norvegicus [3] = test: In vivo inhibition of galactitol accumulation in sciatic nerves of rat at 14 mg/kg/day; format: functional; conditions: Sciatic nerve
Rattus norvegicus [4] = test: In vivo inhibition of galactitol accumulation in diaphragm of rat at 27 mg/kg/day; format: functional
Rattus norvegicus [5] = test: In vivo inhibition of galactitol accumulation in diaphragm of rat at 14 mg/kg/day; format: functional
Rattus norvegicus [6] = species: Rattus norvegicus; test: (§1) In vitro inhibition of sorbitol accumulation was measured in rat sciatic nerves incubated in the presence of 50 mM glucose at 10e-5 M concentration; format: functional, Sciatic nerve
Rattus norvegicus [7] = test: In vivo inhibition of galactitol accumulation in sciatic nerves of rat at 5 mg/kg/day; format: functional; conditions: Sciatic nerve
Rattus norvegicus [8] = species: Rattus norvegicus; test: as §1; format: functional; conditions: Sciatic nerve
Rattus norvegicus [9] = test: In vivo inhibition of galactitol accumulation in diaphragm of rat at 5 mg/kg/day; format: functional
[10] = target: Aldo-keto reductase family 1 member B1 (Bos taurus, UniProt P16116); test: In vitro Inhibition of aldose reductase was measured in isolated partially purified bovine lens preparations at 10e-7 M concentration
Rattus norvegicus [11] = test: Effective dose of aldose reductase was evaluated by measuring galactitol accumulation in sciatic nerves of rat at 5 mg/kg/day; format: functional; conditions: Sciatic nerve
Rattus norvegicus [12] = species: Rattus norvegicus; test: (§2) In vitro inhibition of sorbitol accumulation was measured in rat sciatic nerves incubated in the presence of 50 mM glucose at 10e-6 M concentration; format: functional; conditions: Sciatic nerve
Rattus norvegicus [13] = species: Rattus norvegicus; test: % inhibition of aldose reductase was measured in rat serbital sciatic nerves incubated in the presence of 50 mM glucose at 10e-6 M concentration; format: functional, Sciatic nerve
[14] = target: Aldo-keto reductase family 1 member B1 (Bos taurus) (UniProt P16116); test: In vitro % decrease of aldose reductase measured in isolated partially purified bovine lens preparations at 10e-7 M concentration
Rattus norvegicus [15] = test: In vivo inhibition of galactitol accumulation in sciatic nerves of rat at 16 mg/kg/day; format: functional; conditions: Sciatic nerve
Rattus norvegicus [16] = test: In vivo inhibition of galactitol accumulation in sciatic nerves of rat at 20 mg/kg/day; format: functional; conditions: Sciatic nerve
Rattus norvegicus [17] = test: In vivo inhibition of galactitol accumulation in diaphragm of rat at 20 mg/kg/day; format: functional
Rattus norvegicus [18] = species: Rattus norvegicus; test: as §2; format: functional, Sciatic nerve
Rattus norvegicus [19] = test: In vivo inhibition of galactitol accumulation in sciatic nerves of rat at 50 mg/kg/day; format: functional; conditions: Sciatic nerve
Rattus norvegicus [20] = test: In vivo inhibition of galactitol accumulation in diaphragm of rat at 50 mg/kg; format: functional
Rattus norvegicus [21] = test: In vivo inhibition of galactitol accumulation in diaphragm of rat at 24 mg/kg/day; format: functional
Rattus norvegicus [22] = test: In vivo inhibition of galactitol accumulation in sciatic nerves of rat at 24 mg/kg/day; format: functional; conditions: Sciatic nerve
Rattus norvegicus [23] = test: In vivo inhibition of galactitol accumulation in sciatic nerves of rat at 25 mg/kg/day; format: functional; conditions: Sciatic nerve
Rattus norvegicus [24] = test: In vivo inhibition of galactitol accumulation in sciatic nerves of rat at 15 mg/kg/day; format: functional; conditions: Sciatic nerve
Rattus norvegicus [25] = test: In vivo inhibition of galactitol accumulation in diaphragm of rat at 25 mg/kg/day; format: functional
Rattus norvegicus [26] = test: In vivo inhibition of galactitol accumulation in diaphragm of rat at 15 mg/kg/day; format: functional
Rattus norvegicus [27] = test: In vivo inhibition of galactitol accumulation in sciatic nerves of rat at 10 mg/kg/day; format: functional; conditions: Sciatic nerve
Rattus norvegicus [28] = test: In vivo inhibition of galactitol accumulation in diaphragm of rat at 10 mg/kg/day; format: functional
Rattus norvegicus [29] = test: In vivo inhibition of galactitol accumulation in sciatic nerves of rat at 5 mg/kg/day; Not significant; format: functional, organism-based; conditions: Sciatic nerve
Rattus norvegicus [30] = test: In vivo inhibition of galactitol accumulation in sciatic nerves of rat at 112 mg/kg/day; Not significant; format: functional, organism-based; conditions: Sciatic nerve
Rattus norvegicus [31] = test: % reduction of aldose reductase inhibition was evaluated by measuring galactitol accumulation in diaphragm of rat at 112 mg/kg/day; Not significant; format: functional, organism-based
Rattus norvegicus [32] = test: In vivo inhibition of galactitol accumulation in diaphragm of rat at 19 mg/kg/day; format: functional
Rattus norvegicus [33] = test: In vivo inhibition of galactitol accumulation in sciatic nerves of rat at 19 mg/kg/day; format: functional; conditions: Sciatic nerve
Rattus norvegicus [34] = test: In vivo inhibition of galactitol accumulation in sciatic nerves of rat at 65 mg/kg/day; Not significant; format: functional, organism-based; conditions: Sciatic nerve
Rattus norvegicus [35] = test: In vivo inhibition of galactitol accumulation in diaphragm of rat at 65 mg/kg/day; format: functional
Rattus norvegicus [36] = test: In vivo inhibition of galactitol accumulation in diaphragm of rat at 43 mg/kg/day; Not significant; format: functional, organism-based
Rattus norvegicus [37] = test: In vivo inhibition of galactitol accumulation in sciatic nerves of rat at 43 mg/kg/day; Not significant; format: functional, organism-based; conditions: Sciatic nerve
Rattus norvegicus [38] = test: In vivo inhibition of galactitol accumulation in sciatic nerves of rat at 28 mg/kg/day; format: functional; conditions: Sciatic nerve
Rattus norvegicus [39] = test: In vivo inhibition of galactitol accumulation in diaphragm of rat at 28 mg/kg/day; format: functional

inhibition [2]: inactive
SMILES: COc1ccc2c(C(=O)N(C)CC(N)=O)ccc(F)c2c1C(F)(F)F
inhibition in vivo at 27 mg/kg/day (Rattus norvegicus [1]): 56%
inhibition in vivo at 14 mg/kg/day (Rattus norvegicus [3]): 72%
inhibition in vivo at 27 mg/kg/day (Rattus norvegicus [4]): 31%
inhibition in vivo at 14 mg/kg/day (Rattus norvegicus [5]): 74%

IC50 (Rattus norvegicus [8]): 1400 nM
IC50 [10]: 37 nM
IC50 (Rattus norvegicus [12]): 37 nM
SMILES: O=C(O)Cc1nn(Cc2ccc(Br)cc2F)c(=O)c2ccccc12 [PONALRESTAT]
Inhibition (Rattus norvegicus [6]): 100%
inhibition in vivo at 5 mg/kg/day (Rattus norvegicus [7]): 61%
inhibition in vivo at 5 mg/kg/day (Rattus norvegicus [9]): 63%
ED50 (Rattus norvegicus [11]): 4 mg/kg
Inhibition (Rattus norvegicus [13]): 35%

inhibition [14]: 80%
SMILES: COc1ccc2c(C(=O)N(C)CC(=O)O)c(F)ccc2c1C(F)(F)F
Inhibition (Rattus norvegicus [6]): 66%
inhibition in vivo at 16 mg/kg/day (Rattus norvegicus [15]): 45%
inhibition in vivo at 20 mg/kg/day (Rattus norvegicus [16]): 62%
inhibition in vivo at 20 mg/kg/day (Rattus norvegicus [17]): 72%
Inhibition (Rattus norvegicus [18]): 41%

inhibition [14]: 67%
SMILES: COc1ccc2c(C(=O)N(C)CC(=O)O)c(OCC(F)(F)F)ccc2c1C(F)(F)F
Inhibition (Rattus norvegicus [6]): 57%
inhibition in vivo at 50 mg/kg/day (Rattus norvegicus [19]): 79%
inhibition in vivo at 50 mg/kg (Rattus norvegicus [20]): 82%
inhibition in vivo at 24 mg/kg/day (Rattus norvegicus [21]): 65%
inhibition in vivo at 24 mg/kg/day (Rattus norvegicus [22]): 37%
Inhibition (Rattus norvegicus [18]): 31%

inhibition [14]: 87%
SMILES: CCOC(=O)N(CC(=O)O)C(=O)c1c(F)ccc2c(C(F)(F)F)c(OC)ccc12
Inhibition (Rattus norvegicus [6]): 75%
inhibition in vivo at 25 mg/kg/day (Rattus norvegicus [23]): 70%
inhibition in vivo at 15 mg/kg/day (Rattus norvegicus [24]): 55%
inhibition in vivo at 25 mg/kg/day (Rattus norvegicus [25]): 65%
inhibition in vivo at 15 mg/kg/day (Rattus norvegicus [26]): 59%
Inhibition (Rattus norvegicus [18]): 51%

inhibition [14]: 89%
SMILES: O=C(O)Cc1nn(Cc2nc3cc(C(F)(F)F)ccc3s2)c(=O)c2ccccc12 [ZOPOLRESTAT]
inhibition in vivo at 10 mg/kg/day (Rattus norvegicus [27]): 70%
inhibition in vivo at 10 mg/kg/day (Rattus norvegicus [28]): 80%
inhibition in vivo at 5 mg/kg/day (Rattus norvegicus [9]): 88%
inhibition (Rattus norvegicus [29]): inactive

inhibition [14]: 20%
SMILES: COc1c(C)cc2c(C(=O)N(C)CC(=O)O)cccc2c1Br
inhibition (Rattus norvegicus [30]): inactive
inhibition (Rattus norvegicus [31]): inactive
inhibition in vivo at 19 mg/kg/day (Rattus norvegicus [32]): 63%
inhibition in vivo at 19 mg/kg/day (Rattus norvegicus [33]): 77%

inhibition [14]: 73%
SMILES: COc1ccc2c(C(=O)N(C)CC(=O)O)c(OCc3ccccc3)ccc2c1C(F)(F)F
inhibition (Rattus norvegicus [34]): inactive
inhibition in vivo at 65 mg/kg/day (Rattus norvegicus [35]): 23%

inhibition [14]: 76%
SMILES: CCOC(=O)N(CC(=O)O)C(=O)c1c(Br)ccc2c(C(F)(F)F)c(OC)ccc12
Inhibition (Rattus norvegicus [6]): 73%
inhibition (Rattus norvegicus [36]): inactive
inhibition (Rattus norvegicus [37]): inactive
Inhibition (Rattus norvegicus [18]): 52%

inhibition [14]: 87%
SMILES: CCOc1ccc2c(C(F)(F)F)c(OC)ccc2c1C(=S)N(C)CC(=O)O
inhibition in vivo at 28 mg/kg/day (Rattus norvegicus [38]): 46%
inhibition in vivo at 28 mg/kg/day (Rattus norvegicus [39]): 85%
